Measurements as given in PubChem BioAssay (NCI).
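A five-concentration, 48-hour dose response in 96-well plates underlies each endpoint, interpolated linearly between surrounding concentrations. GI50 = concentration required for 50% inhibition of growth. TGI is the concentration that stops growth completely.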

Assays:
Assay in all cases: inhibition of tumour cell growth, NCI panel, 48 h
RXF 393 renal = tested on: RXF 393 renal
MDA-MB-231 breast = tested on: MDA-MB-231 breast
HOP-62 NSCLC = tested on: HOP-62 NSCLC
UO-31 renal = tested on: UO-31 renal
T-47D breast = tested on: T-47D breast
IGROV1 ovarian = tested on: IGROV1 ovarian
CCRF-CEM leukemia = tested on: CCRF-CEM leukemia
M14 melanoma = tested on: M14 melanoma
SF-268 CNS = tested on: SF-268 CNS
MDA-MB-435 = tested on: MDA-MB-435
SF-539 CNS = tested on: SF-539 CNS
OVCAR-8 ovarian = tested on: OVCAR-8 ovarian
KM12 colon = tested on: KM12 colon
HCT-15 colon = tested on: HCT-15 colon
ACHN renal = tested on: ACHN renal
COLO 205 colon = tested on: COLO 205 colon
LOX IMVI melanoma = tested on: LOX IMVI melanoma
A498 renal = tested on: A498 renal
RPMI-8226 leukemia = tested on: RPMI-8226 leukemia
PC-3 prostate = tested on: PC-3 prostate
SK-OV-3 ovarian = tested on: SK-OV-3 ovarian
TK-10 renal = tested on: TK-10 renal
SR leukemia = tested on: SR leukemia
SNB-19 CNS = tested on: SNB-19 CNS
CAKI-1 renal = tested on: CAKI-1 renal
MOLT-4 leukemia = tested on: MOLT-4 leukemia
OVCAR-5 ovarian = tested on: OVCAR-5 ovarian
NCI-H522 lung = tested on: NCI-H522 lung
UACC-257 melanoma = tested on: UACC-257 melanoma
SN12C renal = tested on: SN12C renal
786-0 renal = tested on: 786-0 renal
HS 578T breast = tested on: HS 578T breast
HCC-2998 colon = tested on: HCC-2998 colon
NCI-H460 lung = tested on: NCI-H460 lung
SK-MEL-5 melanoma = tested on: SK-MEL-5 melanoma
HCT-116 colon = tested on: HCT-116 colon
K-562 leukemia = tested on: K-562 leukemia
SK-MEL-28 melanoma = tested on: SK-MEL-28 melanoma
NCI-H23 lung = tested on: NCI-H23 lung
HT29 colon = tested on: HT29 colon
U251 CNS = tested on: U251 CNS
MCF7 breast = tested on: MCF7 breast
EKVX NSCLC = tested on: EKVX NSCLC
A549 NSCLC = tested on: A549 NSCLC
DU-145 prostate = tested on: DU-145 prostate
NCI/ADR-RES ovarian = tested on: NCI/ADR-RES ovarian
SW-620 colon = tested on: SW-620 colon
SNB-75 CNS = tested on: SNB-75 CNS
HL-60(TB) leukemia = tested on: HL-60(TB) leukemia
UACC-62 melanoma = tested on: UACC-62 melanoma
HOP-92 NSCLC = tested on: HOP-92 NSCLC
OVCAR-4 ovarian = tested on: OVCAR-4 ovarian
BT-549 breast = tested on: BT-549 breast
NCI-H226 lung = tested on: NCI-H226 lung
SF-295 CNS = tested on: SF-295 CNS
SK-MEL-2 melanoma = tested on: SK-MEL-2 melanoma

CSc1ccc(C(=O)/C=C/c2ccc(F)cc2)cc1 gave a GI50 (RXF 393 renal) greater than 100 µM, a TGI (RXF 393 renal) greater than 100 µM and a GI50 (MDA-MB-231 breast) of 74.6 µM. It also gave a TGI (MDA-MB-231 breast) greater than 100 µM, a GI50 (HOP-62 NSCLC) greater than 100 µM and a TGI (HOP-62 NSCLC) greater than 100 µM. The GI50 (UO-31 renal) was greater than 100 µM, the TGI (UO-31 renal) was greater than 100 µM and the GI50 (T-47D breast) was 96.4 µM. It also gave a TGI (T-47D breast) greater than 100 µM, a GI50 (IGROV1 ovarian) of 28.2 µM and a TGI (IGROV1 ovarian) of 65.9 µM. It also gave a GI50 (CCRF-CEM leukemia) of 25.5 µM, a TGI (CCRF-CEM leukemia) of 82.6 µM and a GI50 (M14 melanoma) greater than 100 µM. It also gave a TGI (M14 melanoma) greater than 100 µM, a GI50 (SF-268 CNS) of 75.9 µM and a TGI (SF-268 CNS) greater than 100 µM. For the same compound, the GI50 (MDA-MB-435) was 33.5 µM, the TGI (MDA-MB-435) was 78.3 µM and the GI50 (SF-539 CNS) was 49.6 µM. The TGI (SF-539 CNS) was greater than 100 µM, the GI50 (OVCAR-8 ovarian) was greater than 100 µM and the TGI (OVCAR-8 ovarian) was greater than 100 µM. For the same compound, the GI50 (KM12 colon) was 70.9 µM, the TGI (KM12 colon) was greater than 100 µM and the GI50 (HCT-15 colon) was 29.4 µM. It also gave a TGI (HCT-15 colon) greater than 100 µM, a GI50 (ACHN renal) greater than 100 µM and a TGI (ACHN renal) greater than 100 µM. The GI50 (COLO 205 colon) was greater than 100 µM, the TGI (COLO 205 colon) was greater than 100 µM and the GI50 (LOX IMVI melanoma) was 29.1 µM. It also gave a TGI (LOX IMVI melanoma) of 83.4 µM, a GI50 (A498 renal) of 26.7 µM and a TGI (A498 renal) of 95.5 µM. For the same compound, the GI50 (RPMI-8226 leukemia) was 22.9 µM, the TGI (RPMI-8226 leukemia) was 54.2 µM and the GI50 (PC-3 prostate) was 49.9 µM. It also gave a TGI (PC-3 prostate) greater than 100 µM, a GI50 (SK-OV-3 ovarian) greater than 100 µM and a TGI (SK-OV-3 ovarian) greater than 100 µM. The GI50 (TK-10 renal) was 85.3 µM, the TGI (TK-10 renal) was greater than 100 µM and the GI50 (SR leukemia) was 25.7 µM. For the same compound, the TGI (SR leukemia) was 51.5 µM, the GI50 (SNB-19 CNS) was greater than 100 µM and the TGI (SNB-19 CNS) was greater than 100 µM. It also gave a GI50 (CAKI-1 renal) greater than 100 µM, a TGI (CAKI-1 renal) greater than 100 µM and a GI50 (MOLT-4 leukemia) of 33.9 µM. It also gave a TGI (MOLT-4 leukemia) of 94.4 µM, a GI50 (OVCAR-5 ovarian) of 99.6 µM and a TGI (OVCAR-5 ovarian) greater than 100 µM. The GI50 (NCI-H522 lung) was 38.9 µM, the TGI (NCI-H522 lung) was greater than 100 µM and the GI50 (UACC-257 melanoma) was greater than 100 µM. For the same compound, the TGI (UACC-257 melanoma) was greater than 100 µM, the GI50 (SN12C renal) was greater than 100 µM and the TGI (SN12C renal) was greater than 100 µM. The GI50 (786-0 renal) was greater than 100 µM, the TGI (786-0 renal) was greater than 100 µM and the GI50 (HS 578T breast) was greater than 100 µM. It also gave a TGI (HS 578T breast) greater than 100 µM, a GI50 (HCC-2998 colon) of 41.8 µM and a TGI (HCC-2998 colon) greater than 100 µM. It also gave a GI50 (NCI-H460 lung) of 70.2 µM, a TGI (NCI-H460 lung) greater than 100 µM and a GI50 (SK-MEL-5 melanoma) of 75 µM. It also gave a TGI (SK-MEL-5 melanoma) greater than 100 µM, a GI50 (HCT-116 colon) of 20.7 µM and a TGI (HCT-116 colon) of 36.6 µM. The GI50 (K-562 leukemia) was 25.9 µM, the TGI (K-562 leukemia) was 65.3 µM and the GI50 (SK-MEL-28 melanoma) was 69.3 µM. It also gave a TGI (SK-MEL-28 melanoma) greater than 100 µM, a GI50 (NCI-H23 lung) greater than 100 µM and a TGI (NCI-H23 lung) greater than 100 µM. For the same compound, the GI50 (HT29 colon) was 19.5 µM, the TGI (HT29 colon) was greater than 100 µM and the GI50 (U251 CNS) was 32.9 µM. For the same compound, the TGI (U251 CNS) was greater than 100 µM, the GI50 (MCF7 breast) was 28.5 µM and the TGI (MCF7 breast) was 70 µM. The GI50 (EKVX NSCLC) was greater than 100 µM, the TGI (EKVX NSCLC) was greater than 100 µM and the GI50 (A549 NSCLC) was 64.4 µM. It also gave a TGI (A549 NSCLC) greater than 100 µM, a GI50 (DU-145 prostate) of 54.8 µM and a TGI (DU-145 prostate) greater than 100 µM. The GI50 (NCI/ADR-RES ovarian) was greater than 100 µM, the TGI (NCI/ADR-RES ovarian) was greater than 100 µM and the GI50 (SW-620 colon) was 24.8 µM. It also gave a TGI (SW-620 colon) of 70.8 µM, a GI50 (SNB-75 CNS) of 7.05 µM and a TGI (SNB-75 CNS) greater than 100 µM. For the same compound, the GI50 (HL-60(TB) leukemia) was 48.9 µM, the TGI (HL-60(TB) leukemia) was greater than 100 µM and the GI50 (UACC-62 melanoma) was greater than 100 µM. For the same compound, the TGI (UACC-62 melanoma) was greater than 100 µM, the GI50 (HOP-92 NSCLC) was 75.9 µM and the TGI (HOP-92 NSCLC) was greater than 100 µM. It also gave a GI50 (OVCAR-4 ovarian) of 76.2 µM, a TGI (OVCAR-4 ovarian) greater than 100 µM and a GI50 (BT-549 breast) of 40 µM. The TGI (BT-549 breast) was greater than 100 µM, the GI50 (NCI-H226 lung) was 57.4 µM and the TGI (NCI-H226 lung) was greater than 100 µM. For the same compound, the GI50 (SF-295 CNS) was 33.4 µM, the TGI (SF-295 CNS) was greater than 100 µM and the GI50 (SK-MEL-2 melanoma) was greater than 100 µM. It also gave a TGI (SK-MEL-2 melanoma) greater than 100 µM.
